In brackets after ≈: the same amount, converted by molar mass. Blank lines part the entries; values can stand above or below the compound they belong to.
Columns and labels:
[1] = tested on: LOX IMVI; experiment: Antiproliferative activity against human LOX IMVI cells assessed as inhibition of cell growth incubated for 24 to 48 hrs by SRB assay; type: functional, cell-based
[2] = tested on: MCF7; experiment: Antiproliferative activity against human MCF7 cells assessed as inhibition of cell growth incubated for 72 hrs by MTT assay; type: functional, cell-based; settings: MCF7, 72 h
[3] = tested on: J774.2; experiment: Antiproliferative activity against mouse J774.2 cells assessed as inhibition of cell growth incubated for 72 hrs by MTT assay; type: functional, cell-based; settings: J774.2, 72 h
[4] = Antiproliferative activity against human KB-ChR-8-5-11 cells assessed as inhibition of cell growth incubated for 72 hrs by MTT assay; type: functional, cell-based; settings: KB-ChR-8-5-11, 72 h
[5] = tested on: Jurkat; experiment: Antiproliferative activity against human Jurkat cells assessed as inhibition of cell growth incubated for 72 hrs by MTT assay; type: functional, cell-based
[6] = tested on: THP-1; experiment: Antiproliferative activity against human THP-1 cells assessed as inhibition of cell growth incubated for 72 hrs by MTT assay; type: functional, cell-based; settings: THP-1, 72 h
[7] = tested on: HCT-116; experiment: Antiproliferative activity against human HCT-116 cells assessed as inhibition of cell growth incubated for 72 hrs by MTT assay; type: functional, cell-based; settings: HCT-116, 72 h
[8] = tested on: MCF7; experiment: Antiproliferative activity against human MCF7 cells assessed as inhibition of cell growth incubated for 24 hrs by MTT assay; type: functional, cell-based; settings: MCF7, 24 h
[9] = tested on: HeLa; experiment: Antiproliferative activity against human HeLa cells assessed as inhibition of cell growth incubated for 24 hrs by MTT assay; type: functional, cell-based
[10] = tested on: HepG2; experiment: Antiproliferative activity against human HepG2 cells assessed as inhibition of cell growth incubated for 24 hrs by MTT assay; type: functional, cell-based; settings: HepG2, 24 h
[11] = tested on: SF-295; experiment: Antiproliferative activity against human SF-295 cells assessed as inhibition of cell growth incubated for 72 hrs by MTT assay; type: functional, cell-based; settings: SF-295, 72 h
[12] = tested on: MDA-MB-435; experiment: Antiproliferative activity against human MDA-MB-435 cells assessed as inhibition of cell growth incubated for 72 hrs by MTT assay; type: functional, cell-based; settings: MDA-MB-435, 72 h
[13] = tested on: OVCAR-8; experiment: Antiproliferative activity against human OVCAR-8 cells assessed as inhibition of cell growth incubated for 72 hrs by MTT assay; type: functional, cell-based; settings: OVCAR-8, 72 h
[14] = tested on: HCT-8; experiment: Antiproliferative activity against human HCT-8 cells assessed as inhibition of cell growth incubated for 72 hrs by MTT assay; type: functional, cell-based; settings: HCT-8, 72 h
[15] = tested on: HL-60; experiment: Antiproliferative activity against human HL-60 cells assessed as inhibition of cell growth incubated for 72 hrs by MTT assay; type: functional, cell-based; settings: HL-60, 72 h
[16] = Antiproliferative activity against human NCI-H358M cells assessed as inhibition of cell growth incubated for 72 hrs by MTT assay; type: functional, cell-based
[17] = tested on: PC-3M; experiment: Antiproliferative activity against human PC-3M cells assessed as inhibition of cell growth incubated for 72 hrs by MTT assay; type: functional, cell-based
[18] = tested on: HT-29; experiment: Antiproliferative activity against human HT-29 cells assessed as inhibition of cell growth incubated for 72 hrs by MTT assay; type: functional, cell-based; settings: HT-29, 72 h
[19] = tested on: MOLT-4; experiment: Antiproliferative activity against human MOLT-4 cells assessed as inhibition of cell growth incubated for 72 hrs by MTT assay; type: functional, cell-based; settings: MOLT-4, 72 h
[20] = Antiproliferative activity against human NCI-H322T cells assessed as inhibition of cell growth incubated for 48 hrs by MTT assay; type: functional, cell-based
[21] = tested on: A549; experiment: Antiproliferative activity against human A549 cells assessed as inhibition of cell growth incubated for 48 hrs by MTT assay; type: functional, cell-based; settings: A549, 48 h
[22] = tested on: HepG2; experiment: Antiproliferative activity against human HepG2 cells assessed as inhibition of cell growth incubated for 48 hrs by MTT reagent based colorimetric assay; type: functional; settings: HepG2, 48 h
[23] = tested on: HeLa; experiment: Antiproliferative activity against human HeLa cells assessed as inhibition of cell growth incubated for 48 hrs by MTT reagent based colorimetric assay; type: functional
[24] = tested on: HL-60; experiment: Antiproliferative activity against human HL-60 cells assessed as inhibition of cell growth incubated for 72 hrs by MTT reagent based spectral analysis; type: functional; settings: HL-60, 72 h
[25] = tested on: KB; experiment: Antiproliferative activity against human KB cells assessed as inhibition of cell growth incubated for 72 hrs by MTT assay; type: functional, cell-based
[26] = tested on: HepG2; experiment: Antiproliferative activity against human HepG2 cells assessed as inhibition of cell growth incubated for 72 hrs by MTT assay; type: functional, cell-based; settings: HepG2, 72 h
[27] = tested on: SiHa; experiment: Antiproliferative activity against human SiHa cells; type: functional, cell-based
[28] = tested on: NCI-H460; experiment: Antiproliferative activity against human NCI-H460 cells assessed as inhibition of cell growth incubated for 72 hrs by MTT assay; type: functional, cell-based; settings: NCI-H460, 72 h
[29] = tested on: DU-145; experiment: Antiproliferative activity against human DU-145 cells assessed as inhibition of cell growth incubated for 72 hrs by MTT assay; type: functional, cell-based; settings: DU-145, 72 h
[30] = tested on: HCT-15; experiment: Cytotoxicity against human HCT-15 cells incubated for 48 hrs by MTT assay; type: functional, cell-based; settings: HCT-15, 48 h
[31] = tested on: MDA-MB-231; experiment: Cytotoxicity against human MDA-MB-231 cells incubated for 48 hrs by MTT assay; type: functional, cell-based; settings: MDA-MB-231, 48 h
[32] = tested on: Bel-7402; experiment: Cytotoxicity against human Bel-7402 cells incubated for 48 hrs by MTT assay; type: functional, cell-based; settings: Bel-7402, 48 h
[33] = tested on: HCT-116; experiment: Cytotoxicity against human HCT-116 cells incubated for 48 hrs by MTT assay; type: functional, cell-based; settings: HCT-116, 48 h
[34] = tested on: MDA-MB-231; experiment: Antiproliferative activity against human MDA-MB-231 cells assessed as inhibition of cell growth incubated for 72 hrs by trypan blue exclusion assay; type: functional, cell-based; settings: MDA-MB-231, 72 h
[35] = tested on: DBTRG-05MG; experiment: Antiproliferative activity against human DBTRG-05MG cells assessed as inhibition of cell growth incubated for 72 hrs by cell counting kit method; type: functional, cell-based; settings: dbtrg-05mg

Compound: COc1cc(C2C3=C(Sc4[nH]c(=O)sc42)C(=O)c2ccccc2C3=O)ccc1O (stereo not given)
- IC50 [1]: 0.16 µM

Compound: O=C1C=C(SCCC(=O)N2CCN(c3ccccc3F)CC2)C(=O)c2ccccc21
- IC50 [8]: 16.1 µM
- IC50 [9]: 13 µM
- IC50 [10]: 18.7 µM

Compound: COc1cc(C2C3=C(Nc4cc5c(cc42)OCO5)C(=O)c2ccccc2C3=O)cc(OC)c1OC (stereo not given)
- IC50 [22]: 14.6 µM
- IC50 [23]: 26.8 µM

Compound: O=C1OCC2=C1C(c1ccc(Oc3ccc(F)cc3)cc1)C1=C(N2)C(=O)c2ccccc2C1=O (stereo not given)
- IC50 [25]: 0.6 µM
- IC50 [26]: 1.05 µM
- IC50 [2]: 2.12 µM

Compound: O=C(Nc1ccc(S(=O)(=O)c2ccc3[nH]c4c(c3c2)C(=O)c2ccccc2C4=O)cc1)c1cc([N+](=O)[O-])cc([N+](=O)[O-])c1
- IC50 [27]: 20 µg/mL (≈ 33.5 µM)

Compound: C=CC(C)(C)C(OCCCCCCO)c1cc(OC)c2c(c1OC)/C(=N\O)C=C/C2=N\O (stereo not given)
- IC50 [30]: 30.2 µM
- IC50 [31]: 8.46 µM
- IC50 [32]: 6.53 µM
- IC50 [33]: 23.5 µM

Compound: SODIUM ORTHOVANAD
- IC50 [35]: 25 µM

More lines, main results first:

- IC50 [2]: 8.94 µM
- IC50 [5]: 0.76 µM
- IC50 [6]: 7.94 µM
- IC50 [7]: 6.37 µM
Compound: O=C1C2=C(C(=O)c3ccccc31)C(CCc1ccccc1)c1sc(=O)[nH]c1S2 (stereo not given)
- IC50 [3]: 9.57 µM
- IC50 [4]: 12.8 µM

- IC50 [7]: 4.52 µM
- IC50 [12]: 1.99 µM
- IC50 [13]: 9.61 µM
- IC50 [14]: 3.38 µM
- IC50 [15]: 4.27 µM
- IC50 [17]: 6.55 µM
Compound: C[C@H](NC1=CC(=O)c2ccccc2C1=O)C(=O)O
- IC50 [11]: 2.56 µM
- IC50 [16]: 3.36 µM

- IC50 [2]: 10.4 µM
- IC50 [18]: 6.8 µM
- IC50 [19]: 8.4 µM
Compound: Cc1ccc(Cn2cc(CNC3=CC(=O)c4ccccc4C3=O)nn2)cc1

- IC50 [21]: 4.67 µM
Compound: N#Cc1ccccc1-n1cc(COc2cccc3c2C(=O)C=CC3=O)nn1
- IC50 [20]: 7.94 µM

- IC50 [21]: 6.15 µM
Compound: O=C1C=C(Nc2cccc(F)c2)C(=O)c2ccccc21

- IC50 [24]: 2.92 µM
Compound: CSc1ccc(-c2c(-c3ccc(SC)cc3)n3c4c(c(-c5ccc(SC)cc5)c3c3ccc(SC)cc23)C(=O)c2ccccc2C4=O)cc1

- IC50 [2]: 0.58 µM
- IC50 [5]: 0.31 µM
- IC50 [7]: 0.46 µM
- IC50 [12]: 0.56 µM
- IC50 [28]: 0.38 µM
- IC50 [13]: 0.85 µM
- IC50 [29]: 0.38 µM
Compound: COc1ccc(N(Cc2cn(S(=O)(=O)c3ccc(C)cc3)nn2)C2=CC(=O)c3ccccc3C2=O)cc1
- IC50 [11]: 0.42 µM

- IC50 [34]: 7.5 µM
Compound: COC1=CC(=O)c2ccccc2C1=O [2-Methoxy-1,4-naphthoquinone]
